Values joined by “and” are separate entries in the source; they are usually repeats but may differ in a detail not shown here. Equal values may be shown once. Read-outs that look alike come from different tables or passages of the source.
Key:
P. falciparum cultures = experiment: Exponential killing rate at IC80; assay type: cell-based, Plasmodium falciparum; conditions: triplicate
THP1 = experiment: Human cell line activity, THP1; assay type: cell-based; conditions: THP-1, read-out: IC50 (µM) THP1
[1] = system: 3D7 Clone-Kalihinol Treated (MED6-189 resistant line); experiment: SYBR Green dose response, MED6-189-selected resistant line; assay type: cell-based, Plasmodium falciparum; conditions: resistant line after ~36 months of drug pressure
Text: To assess whether we could use the DMSO melting curves previously established for […] by Dziekan et al. ([49]), we calculated the difference in melting temperatures (ΔTm) between our DMSO dataset and Dziekan’s for 364 proteins for which Tm values were confidently calculated by mineCETSA (table S6).
Fig. 4. […] (C) Schematic representation of the CRISPR-Cas9–based replacement strategy used to introduce a deletion of the targeted repeat regions in the PfSec13 gene. The insertion was achieved through overlap extension polymerase chain reaction (PCR) of fragments directly upstream and downstream of the target segment and subsequently formed by primer overlap extension PCR to replicate the desired deletion. […] (D) Predicted structure of the SEC13 protein highlighting the seven amino acid tandem repeat regions targeted for deletion (red). […] Data were analyzed using a Sigmoidal, 4PL (X represents concentration, n = 3, nonlinear regression, CI: 95%).
P. falciparum in vitro SYBR green fluorescence-based assays The anti-malarial activity of individual analogues were evaluated in-vitro against P. falciparum 3D7 (MRA-102, drug […]
green-I based fluorescence assay. Parasite growth rate and stages of development were determined via microscopy through Giemsa-stained smears of the cultures. […]

[2] = Pharmacokinetic profile at 25 and 50 mg/Kg (Table S9b); assay type: in vivo, Male CD1 mouse; conditions: for Cmax: oral, blood; for AUC(0-inf): read-out: AUCINF_obs
Method: An Acquity ultra-performance liquid chromatography (UPLC) system (Waters Corp., Milford, MA, USA) couple to a triple quadrupole mass spectrometer (API 4000, AB Sciex, Foster City, CA, USA) was used for the analysis ([99]).
Blood concentration time data were analyzed by Non-Compartmental PK analysis using Phoenix WinNonlin software (Certara, NY, US) to calculate PK parameters. […]
were housed in cages (Tecniplast®). The cages contained autoclaved dust free corncob bedding […]
provided ad libitum. Environmental conditions: Photoperiods, simulated dawn/dusk facility, were […]
The temperature range was 22± 2 °C. […]
route, once a day, 10ml/kg). […]
Two mice were treated at 50
To confirm the data, 3 animals per dose
(hematology, clinical chemistry, and necropsy). Additionally in the same animals with the same […]
determination of blood level exposures and pharmacokinetic analysis. […]
Peripheral blood […]
samples (15 µL) were taken at frequent intervals, mixed with 30 µL of H2O milli Q and immediately frozen on dry ice. The frozen samples were stored at −80 °C until analysis. Vehicle-treated mice experienced the same blood-sampling regimen (table S9, S10).
Bioanalysis and pharmacokinetics analysis: LC-MS
Bioanalysis of in vivo samples: Sample pretreatment Before the analysis 15ul of blood samples were defrost at ambient temperature and mixture with 200ul of ACN:MeOH (80:20). After protein precipitation samples were filtered by 0.45um filter plate (Multiscreen Solvinert 0.45um FTPE, Millipore). The 2ul TFA (Trifluoroacetic acid, sigmaAldrich) were added to each filtered sample in order to derivatize the compound to formamide analogue. This process occurs spontaneously.
LC-MS analysis An Acquity Ultra-Performance liquid chromatography (UPLC) system (Waters Corp., Milford, MA, USA) couple to a triple quadrupole mass spectrometer (API 4000™, AB Sciex, Foster City, CA, USA) was used for the analysis. The MS/MS transition was 311.340 / […]
The chromatographic separation was carried out at 0.4ml/min in a Acquity UPLC™ BEH C18 column (50x2.1 mm i.d., […]; Waters Corp.) at 40 °C with Acetonitrile (sigmaAldrich) and 0.1% formic acid as eluents.
Pharmacokinetic analysis Blood concentration time data were analyzed by Non-Compartmental PK analysis using Phoenix WinNonlin software (Certara NY, US) to calculate PK parameters. The maximum observed concentration (Cmax) and the time to reach it (Tmax), were determined. The area under concentration-time curve from dosing at time zero to the last measured concentration […]
time (AUClast) and the total area under concentration-time curve from time zero extrapolated to infinity (AUCinf), were calculated using a linear trapezoidal rule. […]

hTERT = experiment: Human cell line activity, hTERT; assay type: cell-based; conditions: read-out: IC50 (µM) hTERT
HepG2 = experiment: Human cell line activity, HepG2; assay type: cell-based; conditions: HepG2, read-out: IC50 (µM) HepG2
[3] = Tolerability study and toxicological profile; assay type: in vivo, Male CD1 mouse; conditions: for adverse effects (Functional Observational Battery): oral
Method: Tolerability studies used Male CD1 (20-22 g Envigo).
Blood samples for analysis were carried out in the Abacus5 junior Vet (Practice CVM S.L.L). Clinical chemistry was performed by mean analysis of whole blood in Vetscan (ABAXIS) and F560 (Menarini) analyzer and by mean analysis of plasma.
Tolerability study Male CD1 (20-22g Envigo) were used in tolerability studies.
All animal studies were ethically reviewed and carried out in accordance with European Directive
(Rehofix MK2000, 1.7-2.2 mm particle size) and carry filters covers. Animal maintenance
standard g-irradiated standard rodent diet (Envigo Teklad 2914) and ultra-filtered water was
adjusted to 12h of light (300 lux) and 12h darkness daily. The temperature range was 22± 2 °C.
Relative humidity was 55% ± 10 and the air room was changed 15-20 times per hour.
Environmental enrichment included nesting material (nesting cups, LBS), a red-tinted igloo
(Datesand), a hanging clear tunnel (Datesand, and two wood blocks (Datensand).
Protocol design Male CD1 mouse (n=1) was dosed with an initial dose at 100 mg/kg (1-day, oral
route, once a day, 10ml/kg). The animals were observed during the first four hours after
administration and after 24h. The neurobehavioral assessment Functional Observational Battery
the modified symptom-based Up-&-Down method and adjusted a constant factor (1.6). Other male
(100mg/kg and 63.4 mg/kg) and vehicle group with 1% Methylcellulose + 0.5% Tween (n=2) were
dosed. Systemic exposure levels at different times were taken (0.5h, 2h, 4h, 8, 24, 48h) of treated
animals (n=3 per group) and a toxicological profile was performed after 7 days of treatment
scheduling sampling, blood samples of 15 uL were taken from lateral tail vein and recovered in a
vial with the same quantity of water, mix and freeze until bioanalytical quantification for the
Toxicological Profile The bodyweight of animals was recorded before dosage, 24 hours after and
every day in animals kept for 7 days. Any sign of toxicity was recorded for 4h and 24h hours after
drug administration (Functional Observational Battery). All animals were sacrificed by CO2
inhalation. Blood samples for analysis were then taken by intracardiac puncture and fractionated
to blood recount and serum analysis. The blood recount was carried out in the Abacus5 junior Vet
→ (Practice CVM S.L.L). Clinical chemistry was performed by mean analysis of whole blood in
Vetscan→ (ABAXIS) & F560 (Menarini→) analyzer and by mean analysis of plasma, obtained
after centrifugation at 1800g rpm for 10 min in S-Microvette tubes (Sarstedt→) with Heparin-
Lithium. The plasma parameters tested were: glucose, ALP, AST, ALT, GGT, LDH, AMY, CK
Calcium, Phosphate, Sodium, Potassium, total bilirrubin, total protein, albumin, blood ureic
nitrogen (BUN), creatinine, triglycerides, cholesterol. After necropsy, several organs (liver,
kidney, spleen, Caecum, and stomach) were removed and weighed. Liver, kidney, and spleen were
fixed in formalin (formaldehyde 10%) to further histopathology study (Hematoxilin/Eosin stain).

[4] = male, CD1, mouse, whole blood, po, 25 mg/kg, Mean
[5] = male, CD1, mouse, whole blood, po, 50 mg/kg, Mean
[6] = male, CD1, mouse, whole blood, po, 50 mg/kg, individual mice

Compound: [C-]#[N+][C@]1(C)CC[C@H]2[C@@H]([C@@H](C(C)C)CC[C@]2(C)[N+]#[C-])[C@H]1O [MED6-189]
- Exponential killing rate k = (1/t)* log10(N0/Nt) (P. falciparum cultures; at IC80, 48 HPS): 0.008801
- Exponential killing rate k = (1/t)* log10(N0/Nt) (P. falciparum cultures; at IC80, 72 HPS): 0.007941
- Exponential killing rate k = (1/t)* log10(N0/Nt) (P. falciparum cultures; at IC80, 100 HPS): 0.0183
- IC50 (THP1): 12 µM
- IC50 ([1]; 3D7 Clone-Kalihinol Treated): 0.0581 µM
- IC50 ([1]; Plasmodium falciparum, 3D7, 3D7 Clone-Kalihinol Treated): ~0.06 µM
- AUCINF_D_obs ([2]; 25 mg/Kg, Mean): 1505 kg·ng·h/mL/mg
- AUC_%Extrap_obs ([2]; 25 mg/Kg, Mean): 0.955%
- AUClast_D ([2]; 25 mg/Kg, Mean): 1491.7 kg·ng·h/mL/mg
- Cmax_D ([2]; 25 mg/Kg, Mean): 188.6 kg·ng/mL/mg
- HL_Lambda_z ([2]; 25 mg/Kg, Mean): 3.711 h
- AUCINF_D_obs ([2]; 25 mg/Kg, individual mice): 2105.77 kg·ng·h/mL/mg and 904.22 kg·ng·h/mL/mg
- AUCINF_obs ([2]; 25 mg/Kg, individual mice): 52644.4 ng·h/mL and 22605.6 ng·h/mL
- AUC_%Extrap_obs ([2]; 25 mg/Kg, individual mice): 0.78% and 1.13%
- AUClast ([2]; 25 mg/Kg, individual mice): 52232.7 ng·h/mL and 22350.5 ng·h/mL
- AUClast_D ([2]; 25 mg/Kg, individual mice): 2089.31 kg·ng·h/mL/mg and 894.02 kg·ng·h/mL/mg
- Cmax_D ([2]; 25 mg/Kg, individual mice): 232.4 kg·ng/mL/mg and 144.8 kg·ng/mL/mg
- HL_Lambda_z ([2]; 25 mg/Kg, individual mice): 3.31 h and 4.11 h
- Cmax ([2]; 25 mg/Kg, individual mice 1 and 2): 3620 ng/mL
- AUCINF_D_obs ([2]; 50 mg/Kg, Mean): 2099.8 kg·ng·h/mL/mg
- AUC_%Extrap_obs ([2]; 50 mg/Kg, Mean): 4.415%
- AUClast_D ([2]; 50 mg/Kg, Mean): 2014.32 kg·ng·h/mL/mg
- Cmax_D ([2]; 50 mg/Kg, Mean): 158.4 kg·ng/mL/mg
- HL_Lambda_z ([2]; 50 mg/Kg, Mean): 4.536 h
- AUCINF_D_obs ([2]; 50 mg/Kg, individual mice): 1882 kg·ng·h/mL/mg and 2317.54 kg·ng·h/mL/mg
- AUCINF_obs ([2]; 50 mg/Kg, individual mice): 115877 ng·h/mL
- AUC_%Extrap_obs ([2]; 50 mg/Kg, individual mice): 7.74% and 1.09%
- AUClast ([2]; 50 mg/Kg, individual mice): 114617 ng·h/mL
- AUClast_D ([2]; 50 mg/Kg, individual mice): 1736.3 kg·ng·h/mL/mg and 2292.34 kg·ng·h/mL/mg
- Cmax_D ([2]; 50 mg/Kg, individual mice): 137.2 kg·ng/mL/mg and 179.6 kg·ng/mL/mg
- HL_Lambda_z ([2]; 50 mg/Kg, individual mice): 5.74 h and 3.33 h
- Cmax ([2]; 50 mg/Kg, individual mice 1 and 2): 8980 ng/mL
- AUC(0-t) [2, 4]: 37300 ng·h/mL
- AUC(0-inf) [2, 4]: 37600 ng·h/mL
- Cmax ([2]; male, CD1, mouse, whole blood, po, 25 mg/kg, Mean of 2 mice, read-out: Cmax): 4720 ng/mL
- Cmax ([2]; male, CD1, mouse, whole blood, po, 25 mg/kg, individual mice 1 and 2, read-out: Cmax): 5810 ng/mL
- AUC(0-t) [2, 5]: 101000 ng·h/mL
- AUC(0-inf) [2, 5]: 105000 ng·h/mL
- AUC(0-t) [2, 6]: 86800 ng·h/mL
- AUC(0-inf) [2, 6]: 94100 ng·h/mL
- Cmax ([2]; male, CD1, mouse, whole blood, po, 50 mg/kg, Mean of 2 mice, read-out: Cmax): 7920 ng/mL
- Cmax ([2]; male, CD1, mouse, whole blood, po, 50 mg/kg, individual mice 1 and 2, read-out: Cmax): 6860 ng/mL
- Tmax ([2]; male, CD1, mouse, whole blood, po, 25 mg/Kg, individual mice): 4 h
- Tmax ([2]; male, CD1, mouse, whole blood, po, 50 mg/Kg, individual mice): 7 h
- IC50 (hTERT): 26 µM
- IC50 (HepG2): 34 µM
- adverse effects (Functional Observational Battery) ([3]; 50 mg/kg, two mice): didn´t show adverse effects
- adverse effects (Functional Observational Battery) ([3]; 62.5mg/kg, one mouse): showed adverse effects
- adverse effects (Functional Observational Battery) ([3]; 100 mg/kg, once, n=1): Adverse effects were found
- adverse events ([3]; doses up to 50 mg/kg): did not exhibit any adverse events
- hematology, clinical chemistry, necropsy ([3]; doses up to 50 mg/kg): no significant changes

— publication PMC11793105, “A kalihinol analog disrupts apicoplast function and vesicular trafficking in P. falciparum malaria” (Science (New York, N.Y.), 2024)
